From patent publication US10350391B2, “Drug delivery medical device” (Micell Technologies, Inc., priority 2009, dated 2019)
“And” between values parts separate entries of the source, which are not always exact repeats. Equal entries are not always repeated. Where two headings read alike, the source gives them in different places.

Key:
[1] = Sirolimus content of rabbit iliac arteries after inflation of sirolimus coated balloons; format: in vivo
Experimental: GHOST Rapid Exchange (Rx) Catheter was used in this example. Ghost 3.0×18 mm Rx catheter balloons were coated and used in animal study
A. Expansion in rabbit iliac arteries: 8 balloons (4 rabbits)
(§1) • 4 balloons—Balloons inflated in pre-dilated arteries (right iliac) for 60 seconds • 4 balloons—Balloons inflated in non-dilated arteries (left iliac) for 60 seconds B. Tracking Studies: 4 balloons (1 rabbit) • 4 balloons—Balloons inserted and not inflated in aorta for 2 min, then removed C. Sirolimus Quantification • Sirolimus content from: 8 balloons inflated in rabbit iliac arteries 4 balloons not inflated in rabbit aorta 8 rabbit iliac arteries (after balloon inflation) 8 whole blood samples (2 samples/rabbit) • Liver, kidney, spleen, heart, lung: stored (−80° C.) for later drug analysis Sirolimus Concentrations in Rabbit Iliac Arteries
• Drug coated balloons in right iliac arteries inflated/deflated—10-20 min before sacrifice • Drug coated balloons in left iliac arteries inflated/deflated—5-15 min before sacrifice Transfer Efficiency of Sirolimus to Rabbit Iliac Arteries
• Balloons inflated for 1 min in respective iliac arteries • % Sirolimus transferred to artery based on balloon batch average from UV-Vis data • Estimated time artery exposed to blood flow is time after balloon inflation

[2] = Sirolimus concentrations in whole blood samples after balloon inflation; format: in vivo, rabbit; details: for Est. Total Sirolimus in Blood: based on 56 mL per kg
Experimental: as §1
• Baseline samples taken before balloon inflation • After 2nd balloon inflation, blood samples were taken 5-15 min later • 5-15 min samples are the cumulative Sirolimus concentration from the inflation of 2 drug coated balloons per animal Total Sirolimus in blood based on 56 mL per kg Sirolimus Concentrations on Drug Coated Balloons (Rabbits)

[3] = Combined Right + Left Iliac Arteries, n = 8

- Average Sirolimus [1, 3]: 197.2 ± 85.3 ng/mg and 197.2 ng/mg
- Total Sirolimus per Artery Average [1, 3]: 4.7 µg
- Total Sirolimus per Artery Average ([1]; Right Iliac (denuded), n = 4): 5.4 µg
- Average Sirolimus ([1]; Right Iliac (denuded), n = 4, coated balloon inflated 60 s, 10-20 min before sacrifice): 178.3 ng/mg
- Total Sirolimus per Artery ([1]; average of the 8 balloons/arteries): 4.7 µg
- % Sirolimus Transferred to Artery ([1]; average of the 8 balloons/arteries, based on balloon batch average from UV-Vis data): 7.8±2.8% and 7.8%
- Est. Total Sirolimus in Blood ([2]; average of 4 rabbits (5-15 min)): 5.4 ± 2.3 µg and 5.4 µg
- Est. Total Sirolimus in Blood ([2]; rabbit #1, 15 min): 2.7 µg
- Est. Total Sirolimus in Blood ([2]; rabbit #2, 5 min): 8.2 µg
- Est. Total Sirolimus in Blood ([2]; rabbit #3, 5 min): 5.9 µg
- Est. Total Sirolimus in Blood ([2]; rabbit #4, 10 min): 4.8 µg
- concentration at 15 min ([2]; rabbit, whole blood, rabbit #1, 15 min after 2nd balloon inflation, cumulative of 2 coated balloons, read-out: Extraction Conc.): 11.4 ng/mL
- concentration at 5 min ([2]; rabbit, whole blood, rabbit #2, 5 min after 2nd balloon inflation, cumulative of 2 coated balloons, read-out: Extraction Conc.): 30.8 ng/mL
- concentration at 5 min ([2]; rabbit, whole blood, rabbit #3, 5 min after 2nd balloon inflation, cumulative of 2 coated balloons, read-out: Extraction Conc.): 22.2 ng/mL
- concentration at 10 min ([2]; rabbit, whole blood, rabbit #4, 10 min after 2nd balloon inflation, cumulative of 2 coated balloons, read-out: Extraction Conc.): 19.3 ng/mL
- Extraction Conc. ([2]; whole blood, average of 4 rabbits (5-15 min)): 20.9 ng/mL
SMILES: CO[C@H]1C[C@@H]2CC[C@@H](C)[C@@](O)(O2)C(=O)C(=O)N2CCCC[C@H]2C(=O)O[C@H]([C@H](C)C[C@@H]2CC[C@@H](O)[C@H](OC)C2)CC(=O)[C@H](C)/C=C(\C)[C@@H](O)[C@@H](OC)C(=O)[C@H](C)C[C@H](C)/C=C/C=C/C=C/1C [Sirolimus, rapamycin]
- Total Sirolimus per Artery Average ([1]; Left Iliac (uninjured), n = 4): 3.9 µg
- Average Sirolimus ([1]; Left Iliac (uninjured), n = 4, coated balloon inflated 60 s, 5-15 min before sacrifice): 216.1 ng/mg
